How the values were obtained:
[1] = target: T1, Androgen receptor (Rattus norvegicus) (UniProt P15207); test: Binding affinity to rat ventral prostate androgen receptor at 10 uM; type: tissue-based; details: Prostate gland
T1 sequence (whole entry): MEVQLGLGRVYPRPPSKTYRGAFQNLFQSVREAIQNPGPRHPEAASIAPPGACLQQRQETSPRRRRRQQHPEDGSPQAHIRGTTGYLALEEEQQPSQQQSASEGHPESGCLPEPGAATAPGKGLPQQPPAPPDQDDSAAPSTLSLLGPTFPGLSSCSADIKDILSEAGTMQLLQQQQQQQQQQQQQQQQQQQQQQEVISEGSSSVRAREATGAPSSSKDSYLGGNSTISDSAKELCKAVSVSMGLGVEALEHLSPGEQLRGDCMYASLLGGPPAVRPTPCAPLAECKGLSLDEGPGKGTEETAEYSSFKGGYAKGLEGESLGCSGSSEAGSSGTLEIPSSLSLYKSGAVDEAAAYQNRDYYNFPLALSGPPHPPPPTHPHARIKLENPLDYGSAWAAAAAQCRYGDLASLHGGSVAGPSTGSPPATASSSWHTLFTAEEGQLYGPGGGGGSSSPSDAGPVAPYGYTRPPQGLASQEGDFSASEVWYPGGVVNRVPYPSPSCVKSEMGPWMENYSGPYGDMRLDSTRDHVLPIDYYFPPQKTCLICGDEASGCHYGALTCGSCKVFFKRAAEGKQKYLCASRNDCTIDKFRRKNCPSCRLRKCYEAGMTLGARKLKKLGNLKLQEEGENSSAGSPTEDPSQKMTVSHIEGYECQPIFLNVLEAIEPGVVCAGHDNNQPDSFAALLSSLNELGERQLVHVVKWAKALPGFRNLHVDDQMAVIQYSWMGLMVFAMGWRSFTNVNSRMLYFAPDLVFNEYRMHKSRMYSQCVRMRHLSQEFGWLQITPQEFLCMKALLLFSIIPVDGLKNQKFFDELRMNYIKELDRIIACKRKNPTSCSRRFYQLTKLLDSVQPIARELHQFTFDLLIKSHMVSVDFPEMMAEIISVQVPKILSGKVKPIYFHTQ

[2] = target: T2, Estrogen receptor (Rattus norvegicus) (UniProt P06211); test: Binding affinity to rat uterus estrogen receptor at 1 uM
T2 sequence (whole entry): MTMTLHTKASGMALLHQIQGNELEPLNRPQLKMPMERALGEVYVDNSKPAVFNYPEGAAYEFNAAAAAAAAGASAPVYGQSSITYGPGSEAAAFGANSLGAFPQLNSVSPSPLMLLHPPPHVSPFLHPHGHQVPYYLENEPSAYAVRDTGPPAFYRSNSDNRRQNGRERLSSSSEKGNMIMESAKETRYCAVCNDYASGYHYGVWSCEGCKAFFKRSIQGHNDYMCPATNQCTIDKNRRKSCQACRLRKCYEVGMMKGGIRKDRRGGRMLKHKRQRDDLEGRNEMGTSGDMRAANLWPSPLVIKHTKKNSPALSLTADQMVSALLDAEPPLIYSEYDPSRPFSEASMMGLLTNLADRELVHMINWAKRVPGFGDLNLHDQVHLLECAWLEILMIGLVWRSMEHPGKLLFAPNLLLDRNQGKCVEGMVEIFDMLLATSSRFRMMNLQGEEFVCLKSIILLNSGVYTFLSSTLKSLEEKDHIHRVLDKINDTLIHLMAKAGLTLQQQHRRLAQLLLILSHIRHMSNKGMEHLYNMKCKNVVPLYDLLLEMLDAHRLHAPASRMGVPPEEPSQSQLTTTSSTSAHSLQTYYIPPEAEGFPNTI

[3] = target: T3, Progesterone receptor (Rattus norvegicus) (UniProt Q63449); test: Binding affinity to rat uterus progesterone receptor at 0.01 uM
T3 sequence (whole entry): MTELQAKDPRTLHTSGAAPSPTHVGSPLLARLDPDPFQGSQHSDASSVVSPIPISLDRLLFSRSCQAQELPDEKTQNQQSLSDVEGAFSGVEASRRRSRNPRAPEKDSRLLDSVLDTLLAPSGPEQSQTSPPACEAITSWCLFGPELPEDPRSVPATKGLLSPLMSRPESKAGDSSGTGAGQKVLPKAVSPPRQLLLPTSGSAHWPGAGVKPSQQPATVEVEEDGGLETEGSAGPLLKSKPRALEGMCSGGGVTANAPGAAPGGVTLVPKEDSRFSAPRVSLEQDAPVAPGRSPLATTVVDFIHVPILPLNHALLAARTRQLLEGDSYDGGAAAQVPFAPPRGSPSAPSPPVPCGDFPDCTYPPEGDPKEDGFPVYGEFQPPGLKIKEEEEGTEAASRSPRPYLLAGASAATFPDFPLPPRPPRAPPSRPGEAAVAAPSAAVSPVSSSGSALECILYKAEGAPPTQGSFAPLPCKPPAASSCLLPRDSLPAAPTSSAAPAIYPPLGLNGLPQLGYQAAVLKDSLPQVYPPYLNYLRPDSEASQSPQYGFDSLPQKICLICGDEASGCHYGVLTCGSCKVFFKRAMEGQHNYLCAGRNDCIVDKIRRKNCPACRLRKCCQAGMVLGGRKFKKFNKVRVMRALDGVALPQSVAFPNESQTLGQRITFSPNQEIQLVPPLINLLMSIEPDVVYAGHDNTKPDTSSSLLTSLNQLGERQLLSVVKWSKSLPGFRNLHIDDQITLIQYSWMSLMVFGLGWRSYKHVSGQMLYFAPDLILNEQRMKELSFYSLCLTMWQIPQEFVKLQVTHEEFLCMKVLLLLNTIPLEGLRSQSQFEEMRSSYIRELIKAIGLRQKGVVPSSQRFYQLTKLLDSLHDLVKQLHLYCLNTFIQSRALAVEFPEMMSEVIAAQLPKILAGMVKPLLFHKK

`CC1(C)CC[C@@]2(CC[C@H]3[C@@H]4CCc5cc(O)ccc5[C@H]4CC[C@@]32C)OC1=O` showed an Activity [1] of 6%.

In the case of `CC1(C)CC[C@@]2(CC[C@H]3[C@@H]4CCc5ccccc5[C@H]4CC[C@@]32C)OC1=O`, the Activity [2] is reported as 0% and the Activity [3] is reported as 0%.

— ChEMBL document CHEMBL1153852, “Steroidal lactones as inhibitors of 17beta-hydroxysteroid dehydrogenase type 5: chemical synthesis, enzyme inhibitory activity, and assessment of estrogenic and androgenic activities” (Eur J Med Chem, 2009)
